Laboratory results from patent US8569336B2, “Compounds for the treatment of inflammatory disorders” (priority 2008, dated 2013).
Read-outs that look alike come from different tables or passages of the source.

Columns and labels:
[1] = target: T1, purified catalytic domain of recombinant human TACE (rhTACEc) (Homo sapiens, UniProt P78536, N452Q/S266A); assay: TACE kinetic assay: cleavage of internally quenched peptide substrate TNF-FRET 2 (Ki); format: biochemical; details: TNF-FRET 2 substrate
T1 construct: 6xHis (C); made in house; host or cells: baculovirus/Hi5 insect cells

[2] = system: TNF-α production from human whole blood; assay: Inhibition of TNF-α production from human whole blood (hWBA), LPS stimulated, ELISA; format: cell-based; details: TNF-α by ELISA, read-out: hWBA (IC50)
[3] = Area under the curve determinations of plasma levels in rats (rrAUC), oral 10 mg/kg; format: in vivo; details: for AUC: rat, read-out: RR AUC (rapid rat AUC, rrAUC)
[4] = Homo sapiens, LPS-stimulated human whole blood
[5] = Homo sapiens, 3.5 h, human whole blood diluted 1:1, LPS stimulated, 3.5 h
[6] = Homo sapiens, human whole blood diluted 1:1, LPS stimulated
[7] = plasma, blood collected 0.5-6 h post-dosing
[8] = blood collected 0.5-6 h post-dosing

T1 sequence (P78536 215-477 S266A/N452Q): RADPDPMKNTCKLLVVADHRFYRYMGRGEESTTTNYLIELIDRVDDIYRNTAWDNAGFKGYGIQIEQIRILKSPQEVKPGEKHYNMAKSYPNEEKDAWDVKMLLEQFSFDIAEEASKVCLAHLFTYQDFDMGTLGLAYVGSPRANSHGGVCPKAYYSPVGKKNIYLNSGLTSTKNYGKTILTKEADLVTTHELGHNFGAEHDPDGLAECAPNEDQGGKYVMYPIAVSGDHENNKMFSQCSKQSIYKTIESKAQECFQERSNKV

Ki ([1]; read-out: Ki)	IC50 [2, 5]	AUC ([3]; plasma 0.5-6 h post-dosing)	Structure (SMILES)	also measured
0.763 nM	772 nM	3.81 µM·h	COc1ccc2c(c1)C(=O)N(C[C@@]1(c3cc4cnc(-c5cncnc5)cc4o3)NC(=O)NC1=O)C2 [Compound 2233]	
0.98 nM			COc1ccc2c(c1)C(=O)N(C[C@@]1(c3cc4ccc(C(=O)N5CCNCC5)cc4o3)NC(=O)NC1=O)C2 [Compound 2424]	IC50 [2, 6]: 702 nM; AUC [3, 7]: 0.013 µM·h
0.32 nM			COc1ccc2c(c1)C(=O)N(C[C@@]1(c3cc4nc(C#N)ccc4o3)NC(=O)NC1=O)C2 [Compound 2473]	IC50 [2, 6]: 564 nM; AUC [3, 7]: 5.69 µM·h
0.566 nM			COc1ccc2c(c1)C(=O)N(C[C@@]1(c3cc4cnc(-c5cn[nH]c5)cc4o3)NC(=O)NC1=O)C2 [Compound 2286]	IC50 [2, 6]: 184 nM; AUC [3, 7]: 0.046 µM·h
0.935 nM	331 nM	0.527 µM·h	COc1ccc2c(c1)C(=O)N(C[C@@]1(c3cc4nc(N5CC[C@H](O)C5=O)ccc4o3)NC(=O)NC1=O)C2 [Compound 2159]	
0.274 nM	2310 nM	0.195 µM·h	COc1ccc2c(c1)C(=O)N(C[C@@]1(c3cc4ccccc4o3)NC(=O)NC1=O)C2 [Compound 2214]	
0.69 nM			COc1ccc2c(c1F)C(=O)N(C[C@@]1(c3cc4cc5c(c(F)c4o3)C(=O)N(C)C5)NC(=O)NC1=O)C2 [Compound 2502]	IC50 [2, 6]: 381 nM; AUC [3, 7]: 3.12 µM·h
0.599 nM	381 nM	2.71 µM·h	COc1ccc2c(c1)C(=O)N(C[C@@]1(c3cc4nc(NC5CCN(C)CC5)ccc4o3)NC(=O)NC1=O)C2 [Compound 2141]	
0.7 nM			COc1ccc2c(c1)C(=O)N(C[C@@]1(c3cc4nc(-c5ccc(C#N)nc5)ccc4o3)NC(=O)NC1=O)C2 [Compound 1530]	IC50 [2, 4]: 1610 nM; RR AUC (rapid rat AUC, rrAUC) ([3]; plasma 0.5-6 h): 0.536 µM·h
0.8 nM			COc1ccc2c(c1)C(=O)N(C[C@@]1(c3cc4cnc(-c5cccc(C#N)c5)cc4o3)NC(=O)NC1=O)C2 [Compound 2431]	IC50 ([2]; human whole blood diluted 1:1, LPS stimulated): 8420 nM; RR AUC (rapid rat AUC, rrAUC) [3, 8]: 10.648 µM·h
0.55 nM			COc1ccc2c(c1)C(=O)N(C[C@@]1(c3cc4nc(C(N)=O)ccc4o3)NC(=O)NC1=O)C2 [Compound 1924]	IC50 [2, 4]: 200 nM; AUC ([3]; plasma 0.5-6 h): 0.113 µM·h
0.385 nM	533 nM	0.019 µM·h	COc1ccc2c(c1)C(=O)N(C[C@@]1(c3cc4nc(Nc5c(C)nn(C)c5C)ccc4o3)NC(=O)NC1=O)C2 [Compound 2112]	
0.323 nM			COc1ccc2c(c1F)C(=O)N(C[C@@]1(c3cc4c5c(ccc4o3)C(=O)NC5)NC(=O)NC1=O)C2 [Compound 2506]	IC50 [2, 6]: 156 nM; AUC [3, 7]: 0.437 µM·h
0.515 nM	958 nM	0.414 µM·h	COc1ccc2c(c1)C(=O)N(C[C@@]1(c3cc4ccc(-c5nnc(C)o5)cc4o3)NC(=O)NC1=O)C2 [Compound 2190]	
0.553 nM			COc1ccc2c(c1)C(=O)N(C[C@@]1(c3cc4c(C(C)O)nccc4o3)NC(=O)NC1=O)C2 (stereo partly drawn) [Compound 2294]	IC50 [2, 6]: 323 nM; AUC [3, 7]: 0.154 µM·h
1.2 nM	2780 nM	0.56 µM·h	COc1ccc2c(c1)C(=O)N(C[C@@]1(c3cc4nc(NC(=O)c5ccncc5)ccc4o3)NC(=O)NC1=O)C2 [Compound 2135]	
1.31 nM			COc1ccc2c(c1)C(=O)N(C[C@@]1(c3cc4cc(NC(C)=O)cnc4o3)NC(=O)NC1=O)C2 [Compound 2295]	IC50 [2, 6]: 222 nM; AUC [3, 7]: 0.044 µM·h
0.538 nM	1100 nM	2.22 µM·h	COc1ccc2c(c1)C(=O)N(C[C@@]1(c3cc4cnc(-c5cccnc5)cc4o3)NC(=O)NC1=O)C2 [Compound 2232]	
0.86 nM			CNC(=O)c1ccc2oc([C@]3(CN4Cc5ccc(OC)cc5C4=O)NC(=O)NC3=O)cc2n1 [Compound 1925]	IC50 [2, 4]: 280 nM; RR AUC (rapid rat AUC, rrAUC) ([3]; plasma 0.5-6 h): 1.07 µM·h
1.09 nM	270 nM	0.014 µM·h	CC[C@@H]1CN(c2ccc3oc([C@]4(CN5Cc6ccc(OC)cc6C5=O)NC(=O)NC4=O)cc3n2)CCN1 [Compound 2124]	
0.427 nM	753 nM	0.027 µM·h	COc1ccc2c(c1)C(=O)N(C[C@@]1(c3cc4cc(-c5ccc(O)cc5)ncc4o3)NC(=O)NC1=O)C2 [Compound 2243]	
0.86 nM			COc1ccc2c(c1F)C(=O)N(C[C@@]1(c3cc4cc(F)c5c(c4o3)CNC5=O)NC(=O)NC1=O)C2 [Compound 2501]	IC50 [2, 6]: 148 nM; AUC [3, 7]: 0.448 µM·h
0.599 nM	1670 nM	1.77 µM·h	COc1ccc2c(c1)C(=O)N(C[C@@]1(c3cc4cc(-c5cccnc5)cnc4o3)NC(=O)NC1=O)C2 [Compound 2254]	

Further lines, the molecule ahead of its results:

Structure (SMILES)	Ki ([1]; read-out: Ki)	IC50 [2, 5]	AUC ([3]; plasma 0.5-6 h post-dosing)	also measured
COc1ccc2c(c1F)C(=O)N(C[C@@]1(c3cc4cc(C5(C)NC(=O)NC5=O)c(F)cc4o3)NC(=O)NC1=O)C2 (stereo partly drawn) [Compound 1316]	1.02 nM			IC50 [2, 4]: 104 nM; AUC ([3]; plasma 0.5-6 h): 45.7 µM·h
COc1ccc2c(c1)C(=O)N(C[C@@]1(c3cc4cc(-c5ccc(N)nc5)c(F)cc4o3)NC(=O)NC1=O)C2 [Compound 1188]	0.51 nM	720 nM	0.355 µM·h	
COc1ccc2c(c1F)C(=O)N(C[C@@]1(c3cc4cc(C)ncc4o3)NC(=O)NC1=O)C2 [Compound 305]	0.64 nM			IC50 [2, 4]: 241 nM; AUC ([3]; plasma 0.5-6 h): 19.1 µM·h
COc1ccc2c(c1F)C(=O)N(C[C@@]1(c3cc4nc(-n5ccnc5)ccc4o3)NC(=O)NC1=O)C2 [Compound 1523]	0.6 nM			IC50 [2, 4]: 289 nM; AUC ([3]; plasma 0.5-6 h): 4.29 µM·h
COc1ccc2c(c1)C(=O)N(C[C@@]1(c3cc4nc(N)ccc4o3)NC(=O)NC1=O)C2 [Compound 2314]				Ki ([1]; Ki): 0.511 nM; IC50 [2, 6]: 187 nM; RR AUC (rapid rat AUC, rrAUC) [3, 8]: 0.424 µM·h
CCC1(c2ccc3oc([C@]4(CN5Cc6ccc(OC)c(F)c6C5=O)NC(=O)NC4=O)cc3c2)NC(=O)NC1=O (stereo partly drawn) [Compound 1307]	0.81 nM			IC50 [2, 4]: 204 nM; AUC ([3]; plasma 0.5-6 h): 2.01 µM·h
COc1ccc2c(c1)C(=O)N(C[C@@]1(c3cc4nc(-c5cnn(C)c5)ccc4o3)NC(=O)NC1=O)C2 [Compound 2104]		285 nM	0.369 µM·h	Ki ([1]; Ki): 0.191 nM
COc1ccc2c(c1)C(=O)N(C[C@@]1(c3cc4cnc(C(F)(F)F)cc4o3)NC(=O)NC1=O)C2 [Compound 2269]		1620 nM	19.3 µM·h	Ki ([1]; Ki): 0.497 nM
COc1ccc2c(c1)C(=O)N(C[C@@]1(c3cc4nc(N)ccc4o3)NC(=O)NC1=O)C2 [Compound 1936]				Ki ([1]; Ki): 0.51 nM; IC50 [2, 4]: 187 nM; AUC ([3]; plasma 0.5-6 h): 0.424 µM·h
COc1ccc2c(c1F)C(=O)N(C[C@@]1(c3cc4ncc(F)cc4o3)NC(=O)NC1=O)C2 [Compound 1311]	1.18 nM			IC50 [2, 4]: 297 nM; AUC ([3]; plasma 0.5-6 h): 14.6 µM·h
CCN1CCN(c2ccc3oc([C@]4(CN5Cc6ccc(OCC7CC7)c(F)c6C5=O)NC(=O)NC4=O)cc3n2)CC1 [Compound 900]	0.52 nM			IC50 [2, 4]: 290 nM; AUC ([3]; plasma 0.5-6 h): 0.024 µM·h
COc1ccc2c(c1)C(=O)N(C[C@@]1(c3cc4cc(-c5cn[nH]c5)c(F)cc4o3)NC(=O)NC1=O)C2 [Compound 1186]	0.56 nM	550 nM	0.285 µM·h	
COc1ccc2c(c1)C(=O)N(C[C@@]1(c3cc4cnc(N5CCNC5=O)cc4o3)NC(=O)NC1=O)C2 [Compound 2252]		206 nM	1.18 µM·h	Ki ([1]; Ki): 1.79 nM
COc1ccc2c(c1F)C(=O)N(C[C@@]1(c3cc4cc([C@]5(C)NC(=O)NC5=O)c(F)cc4o3)NC(=O)NC1=O)C2 (single isomer, unassigned) [Compound 1327]	0.47 nM			IC50 [2, 4]: 161 nM; AUC ([3]; plasma 0.5-6 h): 2.97 µM·h
COc1ccc2c(c1)C(=O)N(C[C@@]1(c3cc4ccc(-c5nnco5)cc4o3)NC(=O)NC1=O)C2 [Compound 2189]		672 nM	0.988 µM·h	Ki ([1]; Ki): 0.536 nM
COc1ccc2c(c1)C(=O)N(C[C@@]1(c3cc4nc(Nc5onc(C)c5C)ccc4o3)NC(=O)NC1=O)C2 [Compound 2132]		3130 nM	0.145 µM·h	Ki ([1]; Ki): 0.593 nM
